In patent publication US20060252828A1 (priority 2003, published 2006) one finds Observed efficacy data, which are given here for one molecule.

Each structure is given as a SMILES string. Several values for one entry are separate records, joined by “and”; a condition that tells them apart may be missing. Identical values can stand only once.

For this assay, the system named is Meloidogyne spp (Mixture of Meloidogyne incognita and Meloidogyne hapla). The note with it: in vivo.

For the molecule `CN1CSC(=S)N(C)C1` [dazomet, 3,5-dimethyltetrahydro-2H-1,3,5-thiadiazine-2-thione], the Observed efficacy is 2% and 0%.
